From US20260184700A1, “PDK1 REGULATORY COMPOUND AND COMPOSITION CONTAINING THE SAME” (PROVIBIO CO., LTD., priority 2024, published 2026)

Legend:
[1] = tested on: phospho-PDK1 in SU-DHL-8 cells; assay: PDK1 phosphorylation (pPDK1) by flow cytometry in SU-DHL-8 cells; type: cell-based, human; conditions: SU-DHL-8, 24 hours, pPDK1-PE flow cytometry, vs control group
Description: SU-DHL-8 cells were cultured in RPMI-1640 medium (containing 10% FBS, 100 U/mL penicillin, and 100 μg/mL streptomycin), and the cell concentration was adjusted to 1×10^6 cells/mL and seeded into a 12-well plate. After stabilizing the cells, the compound of the present invention was added, and the cells were cultured for 24 hours.
After drug treatment, the cells were harvested, and the Fc receptor blocking process was performed. The cells were then fixed and permeabilized using the Intracellular Staining Kit (Cat. No. BD554715) from BD Biosciences. Subsequently, the intracellular pPDK1 was stained using the pPDK1-PE fluorescently labeled antibody (BD Biosciences).
Referring to the figure, the vertical axis represents the phosphorylation level of PDK1 (phospho-PDK1 expression level), and the horizontal axis denotes the concentration-dependent treatment conditions of each compound.

MRL/lpr mice = assay: Lupus animal model (MRL/lpr mice); type: in vivo, mouse
Excerpt: The MRL/MpJ-Faslpr/J (Hereinafter Referred to as “MRL/lpr”) used in this experiment is one of the representative animal models for systemic lupus erythematosus (SLE), known to produce various autoantibodies, including antinuclear antibodies, due to the lpr (lymphoproliferation) gene.
In this invention, the period up to 9 weeks of age was considered the pre-disease stage, and the period after 23 weeks of age was considered the post-disease stage, and efficacy verification experiments using this model were conducted.
MRL/lpr mice were imported from The Jackson Laboratory and acclimatized for one week in an SPF (Specific Pathogen Free) facility maintained at a temperature of 21-24° C., humidity of 40-60%, and a 12-hour light-dark cycle (lights on at 7:00 AM, lights off at 7:00 PM). […]
The serum separated at the time of necropsy of the lupus animal model was analyzed using the ‘IgG (Total) Mouse Uncoated ELISA Kit (Invitrogen, Cat. #88-50400)’ to measure the concentration of total IgG.
Capture antibody (anti-mouse IgG) diluted 1/250 in coating buffer was added to each well of a 96-well plate (Nunc™ MaxiSorp™ ELISA Plates, Uncoated, BioLegend, Cat. #423501) at 100 μl per well, and the plate was incubated at 4° C. for 16 hours.
To investigate the effect of GO15F administration on changes in the ratio of immune cells in the spleen of a lupus animal model, the spleens of mice administered each compound were excised, cells were extracted, and the cells were suspended in MACS buffer (autoMACS Washing Solution, Miltenyi Biotec., Cat. #130-092-987).
For flow cytometry analysis, FACS tubes (5 mL round tubes, Falcon, Cat. #352052) were used. To prevent non-specific binding of antibodies, 1 μg/mL of anti-mouse CD16/CD32 (InVivoPlus anti-mouse CD16/CD32, BioXCell, Cat. #BP0307) for 30 minutes to prevent non-specific binding of the antibody, then centrifuge at 1,500 rpm for 5 minutes and resuspend in 100 μL of MACS buffer.
For B cells, each FACS tube was stained with 1 μg/mL of FITC-conjugated anti-B220 antibody (eBioscience™, Cat. #11-0452-81) at 4° C. for 30 minutes, then washed with 2 mL of MACS buffer.
For T cells, each FACS tube was stained with 1 μg/mL PerCP-Cy5.5-conjugated anti-CD3 (Biolegend, Cat. #100218) at 4° C. for 30 minutes.
For macrophages, each FACS tube was stained with 1 μg/mL of PE-conjugated anti-CD11b antibody (Biolegend, Cat. #101207) and PerCP-Cy5.5-conjugated anti-F4/80 (Biolegend, Cat. #123128) and incubated at 4° C. for 30 minutes. The tubes were then washed with 2 mL of MACS buffer.
To investigate the effects of compound GO15F according to the present invention on systemic immune responses in a lupus animal model, gene expression analysis of cytokines in kidney tissue was performed as described in (1).
Each kidney tissue was used to isolate total RNA using TRIzol™ (Invitrozen, Cat. #15596018). RNA from each mouse was quantified at 1 μg using a micro-quantitative spectrophotometer (ThermoFisher Scientific, ND2000) and cDNA was synthesized.
The synthesized cDNA from each mouse was quantified to a concentration of 50 ng using a micro-quantitative spectrophotometer, and qPCR was performed for the cytokines ‘IL-2, IL-6, IL-10, IL-17, TNF-α, IFN-γ’ using a SYBR green probe (CFX96, BIO-RAD).
To investigate the effects of drug administration on renal tissue in MRL/lpr mice, the tissue was fixed in 10% neutral buffered formalin at room temperature, followed by stepwise ethanol penetration for dehydration. The tissue was then embedded in xylene and paraffin.
The blocked tissues were sectioned into 4 μm thick slices using a microtome, followed by deparaffinization, hydration, and staining.
Hematoxylin & Eosin staining, PAS staining, and Masson trichrome staining were performed for pathological evaluation of the tissues. […]

[2] = tested on: NHDF (Normal Human Dermal Fibroblast) cells; assay: Doxorubicin-induced aging NHDF cell model, SA-β-gal and Ki-67; type: cell-based; conditions: Doxorubicin (100 ng/ml) and IGF-1 (100 ng/ml), GO15F 0.01, 1 μM, 7 days
Description: After pre-incubation, the medium was removed, and the cells were cultured for 7 days in medium containing Doxorubicin (100 ng/ml) and IGF-1 (100 ng/ml) with GO15F. During this process, the medium was replaced with fresh medium every 2 days. The cultured cells were washed with PBS, fixed with 1× fixation buffer for 15 minutes, washed again with PBS, and then 300 μL of 1× working SA-β-gal buffer was added to each well. The cells were incubated at 37° C. for 24 hours. After the reaction was terminated, the cells were washed with PBS, and the fluorescence intensity of β-gal-positive cells stained blue was observed and photographed using a light microscope. Additionally, to investigate the effect of the compound (GO15F) of the present invention on proliferation activity in aging-induced NHDF (Normal Human Dermal Fibroblast) cells, Ki-67 expression was measured via FACS analysis. First, NHDF cells were seeded at 1×10^4 cells per well in a 12-well plate and stabilized for 24 hours. Subsequently, the cells were pre-incubated with GO15F at a concentration of 0.01 μM for 24 hours. After pre-incubation, the medium was removed, and GO15F (0.01 μM) was added to the medium containing Doxorubicin (100 ng/ml) and IGF-1 (100 ng/ml), followed by incubation for 7 days with fresh medium replaced every 2 days. […]

[3] = tested on: bleomycin-treated Balb/c mice; assay: Bleomycin-induced pulmonary fibrosis animal model; type: in vivo, mouse; conditions: bleomycin mice lung, vs BLM-treated group
Excerpt: To evaluate the therapeutic efficacy of the compound according to the present invention against pulmonary fibrosis, an animal model of pulmonary fibrosis induced by bleomycin intratracheal administration was established.
For this purpose, 8-week-old male Balb/c mice were subjected to general anesthesia using an inhalation anesthetic (2-3% isoflurane in oxygen), followed by disinfection of the neck region, skin incision, and exposure of the trachea.
Bleomycin (Sigma-Aldrich, USA) was directly administered into the trachea at a concentration of 5 mg/kg in a solution of 100 μL.
Two days prior to Bleomycin administration, the compound of the present invention or the comparative drug was administered intraperitoneally at the specified concentration and dose, and the administration was continued once daily for a total of 14 days.
The experimental groups included Normal, Bleomycin alone (BLM), and BLM plus the compound of the present invention (BLM+GO88, 0.2 mg/kg).
Ten days later, the mice were euthanized humanely using carbon dioxide gas, the trachea was incised, and PBS was injected into the trachea to remove blood from the lungs.
The lung tissue washed with PBS was excised, fixed in 4% paraformaldehyde solution for 24 hours, and then paraffin blocks and tissue sections were prepared. The prepared sections were subjected to pathological analysis using H & E, Masson's trichrome, and Sirius red staining.
Additionally, immunohistochemical (IHC) staining was performed for α-SMA (α-smooth muscle actin), an indicator of lung fibroblast activation.

[4] = MRL/lpr mice, serum at necropsy, ELISA, vs control group

Nc1ncccc1C(=O)NCCCCCCCCCCCCF [Compound 57, 2-Amino-N-(12-fluoro-dodecyl)-nicotinamide]
PDK1 phosphorylation (phospho-PDK1 expression level) [1]: inhibitory effect on PDK1 phosphorylation
hair growth on the facial region (MRL/lpr mice; 41-week-old female MRL/lpr mice, GO15F (30 mg/kg), GO48 (1 mg/kg), GO88 (0.5 mg/kg) intraperitoneally once daily): hair growth was confirmed
renal pathological tissue (glomerular capillary loops) (MRL/lpr mice; MRL/lpr mice, H&E, PAS, Masson trichrome staining): glomerular capillary loops were well maintained
B cells, T cells, and macrophages in the spleen (MRL/lpr mice; MRL/lpr mice, flow cytometry (B220, CD3, CD11b/F4/80)): reduced the increased B cells, T cells, and macrophages
IgG deposition in kidney tissue (MRL/lpr mice; MRL/lpr mice, immunofluorescence staining): significantly lower
concentration of anti-dsDNA IgG in the blood (MRL/lpr mice; [4]): significantly lower
total IgG concentration in the blood (MRL/lpr mice; [4]): significantly lower
protein concentration in urine (MRL/lpr mice; MRL/lpr mice, weekly urine, Bradford, vs control group): significantly lower than that in the control group
number of β-gal-positive cells [2]: decreased
collagen deposition (Masson's trichrome and Sirius red staining) [3]: significantly reduced
expression of α-SMA (IHC) [3]: significantly suppressed
